biological target: T1, human RIP1 kinase domain (2-375) (Homo sapiens, UniProt Q13546); assay: RIP1 kinase inhibition biochemical assay (Transcreener ADP, fluorescence polarization); conditions: Ki app (Morrison tight-binding fit); 50 nM enzyme, 50 uM ATP, 2 hours incubation
T1 construct: Purified human RIP1 kinase domain (2-375) (50 nM); made in house; host or cells: baculovirus-infected insect cells
T1 sequence (Q13546 2-375): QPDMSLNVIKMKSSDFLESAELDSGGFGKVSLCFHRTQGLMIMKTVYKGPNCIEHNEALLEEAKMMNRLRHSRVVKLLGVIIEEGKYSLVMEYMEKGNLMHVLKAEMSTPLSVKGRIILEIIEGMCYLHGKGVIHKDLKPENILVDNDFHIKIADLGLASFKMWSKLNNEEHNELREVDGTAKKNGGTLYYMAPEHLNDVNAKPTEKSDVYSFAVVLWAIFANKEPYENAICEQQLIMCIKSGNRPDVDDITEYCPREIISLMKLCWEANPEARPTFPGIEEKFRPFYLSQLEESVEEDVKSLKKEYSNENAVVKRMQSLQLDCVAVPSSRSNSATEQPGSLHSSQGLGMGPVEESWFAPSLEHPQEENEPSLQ
Experimental: RIP1 Kinase Inhibition Assays (Biochemical Assay)
The compounds of the present invention were tested for their capacity to inhibit RIP1K activity as described below.
The ability of the receptor interacting protein kinase (RIPK1) to catalyze the hydrolysis of adenosine-5′-triphosphate (ATP) is monitored using the Transcreener ADP (adenosine-5′-diphosphate) assay (BellBrook Labs). Purified human RIP1 kinase domain (2-375) (50 nM) derived from a baculovirus-infected insect cell expression system is incubated with test compounds for 2 hours in 50 mM Hepes buffer (pH 7.5) containing 30 mM MgCl2, 1 mM dithiothreitol, 50 uM ATP, 0.002% Brij-35, and 0.5% dimethyl sulfoxide (DMSO). Reactions are quenched by the addition of 1× Bell Brooks Stop buffer B (20 mM Hepes (ph7.5), 40 mM ethylenediaminetetraacetic acid and 0.02% Brij-35) containing an additional 12 mM EDTA and 55 ug/mL ADP2 antibody and 4 nM ADP-AlexaFluor® 633 tracer. The tracer bound to the antibody is displaced by the ADP generated during the RIP1K reaction, which causes a decrease in fluorescence polarization that is measured by laser excitation at 633 nm with a FP microplate reader M1000. Fractional activity was plotted against test article concentration. Using Genedata Screener software (Genedata; Basel, Switzerland), the data were fit to the tight-binding apparent inhibition constant (Ki^app) Morrison equation [Williams, J. W. and Morrison, J. F. (1979) The kinetics of reversible tight-binding inhibition. Methods Enzymol 63: 437-67]. The following equation was used to calculate fractional activity and Ki^app:
[formula] where [E]T and [I]T are the total concentrations of active enzyme and test article, respectively.
Exemplary compounds of the present invention are provided in Table 1 along with their physiochemical characterization and in vitro RIP1 kinase inhibitory activity data. “Method” in the first column of each table refers to the synthetic method(s) used to prepare each compound as shown in the Examples above. In certain examples, chiral column retention times (min) are provided for certain stereoisomers. Unless otherwise specified, the stereochemistry shown in each structure represents relative configuration of a single stereoisomer, and absolute configuration (i.e., “R” and/or “S”) is arbitrarily assigned. In some embodiments, where the Method is described to include the separation of stereoisomers, a single stereoisomer of a compound of Table 1 is provided.

Row | SMILES | Ki
1 | FC1CC(c2ccccc2)n2nc(C3CC3)nc21 (racemic) [Example 11, Cis-2-cyclopropyl-7-fluoro-5-phenyl-6,7-dihydro-5H-pyrrolo[1,2-b][1,2,4]triazole] | 320 nM
2 | N#CC1(Cc2nc3n(n2)[C@H](c2ccccc2)C[C@@H]3F)CC1 (single isomer, unassigned) [Example 47] | 95 nM
3 | CC[C@H](F)c1nc2n(n1)[C@H](c1ccccc1)C[C@@H]2F (racemic) [Example 8, rac-(5S,7S)-7-fluoro-5-phenyl-2-[rac-(1S)-1-fluoropropyl]-6,7-dihydro-5H-pyrrolo[1,2-b][1,2,4]triazole] | 14 nM
4 | Cn1ccc(-c2nc3n(n2)[C@H](c2ccccc2)C[C@@H]3F)n1 (single isomer, unassigned) [Example 19] | 1100 nM
5 | F[C@H]1C[C@@H](c2ccccc2)n2nc([C@H](F)C34CC(C3)C4)nc21 (single isomer, unassigned) [Example 45] | 230 nM
6 | F[C@H]1C[C@@H](c2ccccc2)n2nc(-n3cc(Cl)cn3)nc21 [Example 60, (5S,7S)-2-(4-chloropyrazol-1-yl)-7-fluoro-phenyl-6,7-dihydro-5H-pyrrolo[1,2-b][1,2,4]triazole] | 4.5 nM
7 | O=Cc1cnn(-c2nc3n(n2)[C@H](c2ccccc2)C[C@@H]3F)c1 [Example 40, 1-[(5S,7S)-7-fluoro-5-phenyl-6,7-dihydro-5H-pyrrolo[1,2-b][1,2,4]triazol-2-yl]pyrazole-4-carbaldehyde] | 52 nM
8 | F[C@H]1C[C@@H](c2ccccc2)n2nc(-n3cc(C(F)(F)F)cn3)nc21 (single isomer, unassigned) [Example 56] | < 5 nM
9 | CCC(F)c1nc2n(n1)C(c1ccccc1)CC2F (stereo not drawn) [Example 3, Cis-7-fluor-2-(1-fluoropropyl)-5-phenyl-6,7-dihydro-5H-pyrrolo[1,2-b][1,2,4]triazole] | 51 nM
10 | CC(C)c1cnn(-c2nc3n(n2)[C@H](c2ccccc2)C[C@@H]3F)c1 (single isomer, unassigned) [Example 39] | 30 nM
11 | CCCc1nc2n(n1)[C@H](c1ccccc1F)CC2 (single isomer, unassigned) [Example 26] | 114 nM
12 | CCc1nc2n(n1)[C@H](c1ccccc1)C[C@@H]2F [Example 36, (5S,7S)-2-ethyl-7-fluoro-5-phenyl-6,7-dihydro-5H-pyrrolo[1,2-b][1,2,4]triazole] | 49 nM
13 | F[C@H]1C[C@@H](c2ccccc2)n2nc(C#CC3CC3)nc21 [Example 43, (5S,7S)-2-(2-cyclopropylethynyl)-7-fluoro-5-phenyl-6,7-dihydro-5H-pyrrolo[1,2-b][1,2,4]triazole] | 450 nM
14 | CCC(O)c1nc2n(n1)[C@H](c1ccccc1)C[C@@H]2F (some centres unmarked) [Example 1] | 406 nM
15 | CC(C)(C)C(F)(F)c1nc2n(n1)C(c1ccccc1)CC2F (racemic) [Example 9, Cis-2-(1,1-difluoro-2,2-dimethyl-propyl)-7-fluoro-5-phenyl-6,7-dihydro-5H-pyrrolo[1,2-b][1,2,4]triazole] | 68 nM
16 | FC1CC(c2ccccc2)n2nc(C(F)(F)F)nc21 (racemic) [Example 12, Cis-7-fluoro-5-phenyl-2-(trifluoromethyl)-6,7-dihydro-5H-pyrrolo[1,2-b][1,2,4]triazole] | 130 nM
17 | N#CCCc1nc2n(n1)[C@H](c1ccccc1)C[C@@H]2F (single isomer, unassigned) [Example 22] | 11 nM
18 | O[C@H](c1nc2n(n1)[C@H](c1ccccc1)C[C@@H]2F)C1CC1 (single isomer, unassigned) [Example 34] | 904 nM

The next lines start with the values.

Row | Ki | SMILES
19 | 140 nM | F[C@H]1C[C@@H](c2ccccc2)n2nc(-c3cnoc3)nc21 (single isomer, unassigned) [Example 99]
20 | 9 nM | [2H]C(c1nc2n(n1)[C@H](c1ccccc1)C[C@@H]2F)C1CC1 (stereo partly drawn) [Example 101, (5S,7S)-2-[cyclopropyl(deuterio)methyl]-7-fluoro-5-phenyl-6,7-dihydro-5H-pyrrolo[1,2-b][1,2,4]triazole]
21 | 160 nM | F[C@H]1C[C@@H](c2ccccc2)n2nc(-n3ncc4ccncc43)nc21 (racemic) [Example 87, 1-[rac-(5S,7S)-7-fluoro-5-phenyl-6,7-dihydro-5H-pyrrolo[1,2-b][1,2,4]triazol-2-yl]pyrazolo[3,4-c]pyridine]
22 | 4.5 nM | Fc1ccccc1[C@@H]1C[C@H](F)c2nc(CC3CC3(F)F)nn21 (stereo partly drawn) [Example 112, (5S,7S)-2-[(2,2-difluorocyclopropyl)methyl]-7-fluoro-5-(2-fluorophenyl)-6,7-dihydro-5H-pyrrolo[1,2-b][1,2,4]triazole]
23 | 81 nM | O[C@H](c1cc2n(n1)[C@@H](c1ccccc1)C[C@H]2F)C1CC1 (single isomer, unassigned) [Example 115]
24 | 36 nM | F[C@H]1C[C@@H](c2ccccc2)n2nc(-n3nnc4ccncc43)nc21 (single isomer, unassigned) [Example 83]
25 | 250 nM | N#CC1CN(c2nc3n(n2)[C@H](c2ccccc2)C[C@@H]3F)C1 (single isomer, unassigned) [Example 100]
26 | 3.5 nM | F[C@H]1C[C@@H](c2ccccc2)n2nc([C@H](F)C3CC3)nc21 (single isomer, unassigned) [Example 107]
27 | 180 nM | FC(F)c1nc2n(n1)[C@@H](c1ccccc1)C[C@H]2F (single isomer, unassigned) [Example 118]
28 | 70 nM | Cc1ncnn1-c1nc2n(n1)[C@H](c1ccccc1)C[C@@H]2F (single isomer, unassigned) [Example 74]
29 | 9.2 nM | F[C@H]1C[C@@H](c2ccccc2)n2nc(-n3nnc4cc(Cl)ccc43)nc21 (racemic) [Example 82, 5-chloro-1-[rac-(5S,7S)-7-fluoro-5-phenyl-6,7-dihydro-5H-pyrrolo[1,2-b][1,2,4]triazol-2-yl]benzotriazole]
30 | 12 nM | F[C@H](c1nc2n(n1)[C@H](c1ccccc1)C[C@@H]2F)C1CC1 (single isomer, unassigned) [Example 109]
31 | 29 nM | F[C@H]1C[C@@H](c2ccccc2)n2nc(-n3ncc4ncccc43)nc21 (single isomer, unassigned) [Example 84]
32 | 5 nM | F[C@H]1C[C@@H](c2ccccc2)n2nc(-n3nnc4ccccc43)nc21 (single isomer, unassigned) [Example 81]
33 | 160 nM | F[C@H]1C[C@@H](c2ccccc2)n2nc(-n3cnc(C(F)(F)F)c3)nc21 (single isomer, unassigned) [Example 62]
34 | 890 nM | Cc1nccn1-c1nc2n(n1)[C@H](c1ccccc1)C[C@@H]2F (single isomer, unassigned) [Example 67]
35 | 92 nM | Cc1ccnn1-c1nc2n(n1)[C@H](c1ccccc1)C[C@@H]2F (single isomer, unassigned) [Example 63]
36 | 7.3 nM | [2H]C([2H])(c1nc2n(n1)[C@H](c1ccccc1)C[C@@H]2F)C1CC1 (single isomer, unassigned) [Example 116]
37 | 220 nM | CC(C)(C#N)c1nc2n(n1)[C@H](c1ccccc1)C[C@@H]2F (racemic) [Example 103, 2-[rac-(5S,7S)-7-fluoro-5-phenyl-6,7-dihydro-5H-pyrrolo[1,2-b][1,2,4]triazol-2-yl]-2-methyl-propanenitrile]
38 | 100 nM | F[C@H]1C[C@@H](c2ccccc2)n2nc(-n3cnc(Cl)c3)nc21 (single isomer, unassigned) [Example 75]
